The results in this text go back to ChEMBL document CHEMBL1138068 (J Med Chem, 2006).

The target of series [1] is Neuronal acetylcholine receptor subunit alpha-7 (Rattus norvegicus, UniProt Q05941). Description: Displacement of [125I]alpha-BTX from alpha-7 nAChR in rat hippocampus membrane. Format: cell membranes.
For another series, the target named is Cytochrome P450 2D6 (Homo sapiens, UniProt P10635). Description: Inhibition of CYP2D6. The series is classed as ADME.
Another series has as its target Cytochrome P450 1A2 (Homo sapiens, UniProt P05177). In words: Inhibition of CYP1A2. Format: ADME.
In another series the target is Cytochrome P450 2C9 (Homo sapiens, UniProt P11712). In words: Inhibition of CYP2C9. Format: ADME.
The next series has as its target Cytochrome P450 2C19 (Homo sapiens, UniProt P33261). Description: Inhibition of CYP2C19. Format: ADME.
The next series addresses Cytochrome P450 3A4 (Homo sapiens, UniProt P08684). In words: Inhibition of CYP3A4. Format: ADME.
Series [2] deals with Neuronal acetylcholine receptor subunit alpha-7 (Homo sapiens) (UniProt P36544). In words: Activity at alpha-7 nAChR assessed as stimulation of relative inward current in cultured hippocampal neurons relative to choline. As to conditions: Hippocampus, filed as agonist; call rule not given here. Format: functional, tissue-based.
Neuronal acetylcholine receptor subunit alpha-7 (Homo sapiens), sequence (P36544 whole entry): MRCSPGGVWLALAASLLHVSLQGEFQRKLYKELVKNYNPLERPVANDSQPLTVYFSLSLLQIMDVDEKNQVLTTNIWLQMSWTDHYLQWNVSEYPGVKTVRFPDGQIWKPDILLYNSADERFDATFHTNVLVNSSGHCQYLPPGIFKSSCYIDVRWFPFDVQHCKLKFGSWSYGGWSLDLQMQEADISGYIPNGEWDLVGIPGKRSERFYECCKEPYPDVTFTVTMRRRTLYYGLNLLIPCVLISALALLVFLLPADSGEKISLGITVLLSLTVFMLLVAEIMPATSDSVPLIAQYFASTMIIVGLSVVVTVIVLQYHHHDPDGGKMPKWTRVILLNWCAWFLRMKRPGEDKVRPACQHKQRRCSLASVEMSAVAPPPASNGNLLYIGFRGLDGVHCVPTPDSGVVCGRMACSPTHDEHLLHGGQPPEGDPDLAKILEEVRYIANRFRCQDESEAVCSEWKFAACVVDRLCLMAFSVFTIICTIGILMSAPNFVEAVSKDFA

Cytochrome P450 2D6, sequence (P10635 whole entry): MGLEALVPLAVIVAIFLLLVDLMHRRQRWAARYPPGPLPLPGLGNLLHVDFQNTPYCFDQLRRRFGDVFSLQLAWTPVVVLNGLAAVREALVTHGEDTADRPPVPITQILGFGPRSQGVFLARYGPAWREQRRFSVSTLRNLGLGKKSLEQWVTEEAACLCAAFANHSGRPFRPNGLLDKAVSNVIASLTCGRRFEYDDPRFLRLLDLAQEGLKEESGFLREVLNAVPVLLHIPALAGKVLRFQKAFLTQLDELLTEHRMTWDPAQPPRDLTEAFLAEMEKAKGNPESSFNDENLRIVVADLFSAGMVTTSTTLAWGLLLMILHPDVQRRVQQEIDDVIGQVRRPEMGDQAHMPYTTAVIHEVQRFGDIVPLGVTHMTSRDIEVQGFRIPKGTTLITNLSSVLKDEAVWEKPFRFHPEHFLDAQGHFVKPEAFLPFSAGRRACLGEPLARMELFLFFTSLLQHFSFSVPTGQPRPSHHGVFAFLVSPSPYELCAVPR
Neuronal acetylcholine receptor subunit alpha-7, sequence (Q05941 whole entry): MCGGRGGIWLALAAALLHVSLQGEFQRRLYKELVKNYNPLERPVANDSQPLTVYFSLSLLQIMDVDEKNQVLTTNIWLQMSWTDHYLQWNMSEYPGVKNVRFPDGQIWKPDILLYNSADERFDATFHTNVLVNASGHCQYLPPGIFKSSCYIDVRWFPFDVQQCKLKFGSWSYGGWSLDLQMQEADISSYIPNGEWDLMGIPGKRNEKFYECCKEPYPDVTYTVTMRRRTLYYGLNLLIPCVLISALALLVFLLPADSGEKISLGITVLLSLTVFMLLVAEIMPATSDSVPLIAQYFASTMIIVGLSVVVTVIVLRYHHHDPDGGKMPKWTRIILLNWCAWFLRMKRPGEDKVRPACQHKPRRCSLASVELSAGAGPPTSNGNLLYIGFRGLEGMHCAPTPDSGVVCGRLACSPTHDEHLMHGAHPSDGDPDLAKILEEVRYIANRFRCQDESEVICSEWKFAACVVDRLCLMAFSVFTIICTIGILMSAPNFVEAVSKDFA
Cytochrome P450 1A2, sequence (P05177 whole entry): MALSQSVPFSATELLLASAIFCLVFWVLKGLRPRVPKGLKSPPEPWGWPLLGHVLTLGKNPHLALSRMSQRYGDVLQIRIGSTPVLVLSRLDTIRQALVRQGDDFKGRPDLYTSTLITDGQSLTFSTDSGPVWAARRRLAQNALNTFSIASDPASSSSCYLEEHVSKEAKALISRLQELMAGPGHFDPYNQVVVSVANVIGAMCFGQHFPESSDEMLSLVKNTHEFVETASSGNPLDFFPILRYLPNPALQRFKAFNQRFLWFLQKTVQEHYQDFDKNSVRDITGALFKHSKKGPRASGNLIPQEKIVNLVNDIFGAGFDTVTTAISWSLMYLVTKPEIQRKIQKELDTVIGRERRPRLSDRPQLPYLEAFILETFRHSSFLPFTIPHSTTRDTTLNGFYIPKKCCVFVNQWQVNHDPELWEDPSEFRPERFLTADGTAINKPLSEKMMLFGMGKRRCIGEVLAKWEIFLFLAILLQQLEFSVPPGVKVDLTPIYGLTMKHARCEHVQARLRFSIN
Cytochrome P450 2C19, sequence (P33261 whole entry): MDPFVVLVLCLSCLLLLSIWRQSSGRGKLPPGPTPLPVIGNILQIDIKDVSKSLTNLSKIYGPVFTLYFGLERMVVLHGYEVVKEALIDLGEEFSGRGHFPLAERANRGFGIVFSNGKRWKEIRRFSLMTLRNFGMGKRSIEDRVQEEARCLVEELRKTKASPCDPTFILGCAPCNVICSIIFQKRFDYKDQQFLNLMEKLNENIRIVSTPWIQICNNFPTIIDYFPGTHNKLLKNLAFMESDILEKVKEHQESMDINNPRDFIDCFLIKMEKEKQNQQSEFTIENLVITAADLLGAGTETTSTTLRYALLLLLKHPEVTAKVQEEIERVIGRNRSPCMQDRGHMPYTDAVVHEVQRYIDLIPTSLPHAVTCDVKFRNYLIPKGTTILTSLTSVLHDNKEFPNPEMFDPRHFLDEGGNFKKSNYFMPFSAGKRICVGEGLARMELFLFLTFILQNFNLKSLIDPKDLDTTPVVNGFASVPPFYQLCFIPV
Cytochrome P450 3A4, sequence (P08684 whole entry): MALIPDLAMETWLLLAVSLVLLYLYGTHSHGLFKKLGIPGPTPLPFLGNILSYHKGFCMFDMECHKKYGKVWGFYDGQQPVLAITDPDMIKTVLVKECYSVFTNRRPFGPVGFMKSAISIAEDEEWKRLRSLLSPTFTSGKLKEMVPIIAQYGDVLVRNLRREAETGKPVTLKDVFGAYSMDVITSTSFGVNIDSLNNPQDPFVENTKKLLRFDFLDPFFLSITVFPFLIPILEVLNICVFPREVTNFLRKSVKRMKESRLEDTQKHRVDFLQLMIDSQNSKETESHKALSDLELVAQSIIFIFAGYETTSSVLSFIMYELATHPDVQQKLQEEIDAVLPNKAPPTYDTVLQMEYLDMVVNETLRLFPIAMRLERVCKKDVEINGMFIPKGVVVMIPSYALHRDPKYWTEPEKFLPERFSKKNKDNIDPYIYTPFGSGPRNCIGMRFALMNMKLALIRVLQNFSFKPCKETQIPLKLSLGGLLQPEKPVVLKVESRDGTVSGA
Cytochrome P450 2C9, sequence (P11712 whole entry): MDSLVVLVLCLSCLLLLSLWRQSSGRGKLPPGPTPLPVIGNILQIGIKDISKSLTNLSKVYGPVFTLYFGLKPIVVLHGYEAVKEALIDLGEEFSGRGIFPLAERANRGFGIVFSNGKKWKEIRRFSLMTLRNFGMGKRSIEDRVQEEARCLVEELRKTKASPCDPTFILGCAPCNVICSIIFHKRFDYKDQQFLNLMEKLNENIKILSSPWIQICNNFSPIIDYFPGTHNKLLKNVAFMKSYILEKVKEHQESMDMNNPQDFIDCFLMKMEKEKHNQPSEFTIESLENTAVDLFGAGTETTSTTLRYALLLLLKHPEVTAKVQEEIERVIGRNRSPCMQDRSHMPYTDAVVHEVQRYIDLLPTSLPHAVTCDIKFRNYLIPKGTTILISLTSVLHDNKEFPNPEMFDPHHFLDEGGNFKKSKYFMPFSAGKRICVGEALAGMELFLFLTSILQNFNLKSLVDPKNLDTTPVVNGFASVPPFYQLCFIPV

In the case of `O=C1O[C@@]2(CN3CCC2CC3)CN1c1ccc2occ(Br)c2c1`, the Ki in series [1] worked out at 0.004 µM. Also, the IC50 against Cytochrome P450 2D6 was over 30 µM. Consider `Cn1c(=O)oc2cc(N3CC4(CN5CCC4CC5)OC3=O)ccc21` (single isomer, unassigned), for which the IC50 in series [1] was over 1 µM. As to `O=C1O[C@]2(CN3CCC2CC3)CN1c1ccc(Cl)s1`, inhibition on Cytochrome P450 2D6 was half-maximal at 2 µM (IC50). Also, the Activity result at Cytochrome P450 1A2, on Cytochrome P450 2C9, at Cytochrome P450 2C19 and at Cytochrome P450 3A4 was “Not Active” throughout.

Take `O=C1O[C@]2(CN3CCC2CC3)CN1c1ccc2c(c1)CCO2`: in series [1], the affinity, expressed as Ki, was 0.085 µM. This counts as double-digit nanomolar.

Regarding `Cc1nc2cc(N3C[C@@]4(CN5CCC4CC5)OC3=O)ccc2s1`, in series [1], the affinity, expressed as Ki, was 0.06 µM.

For the compound `O=C1NCC2(CN3CCC2CC3)O1` (single isomer, unassigned), in series [2], the Activity entry is “Agonist”. `CCc1coc2ccc(N3C[C@@]4(CN5CCC4CC5)OC3=O)cc12` gave a Ki in series [1] of 0.008 µM. The same compound displayed an IC50 at Cytochrome P450 2D6 of 21 µM. The corresponding values for `O=C1O[C@]2(CN3CCC2CC3)CN1c1ccc2sccc2c1` are 0.028 µM and over 30 µM.

`Cc1cc2cc(N3C[C@@]4(CN5CCC4CC5)OC3=O)ccc2s1` came in with an IC50 on Cytochrome P450 2D6 of over 30 µM. For `O=C1O[C@]2(CN3CCC2CC3)CN1c1ccc2c(c1)OCC2`, the affinity in series [1] corresponds to a Ki of 0.41 µM. That is a sub-micromolar value.

Take `Cn1c(=O)sc2cc(N3CC4(CN5CCC4CC5)OC3=O)ccc21` (single isomer, unassigned): in series [1], the IC50 is over 1 µM. In turn, `O=C1O[C@]2(CN3CCC2CC3)CN1c1ccc2sc(Cl)cc2c1` yielded a Ki in series [1] of 0.034 µM. Besides, at Cytochrome P450 2D6, the IC50 is over 30 µM.
